Values quoted from earlier work as cited in US7351715B2, “Unit dosage forms for the treatment of herpes simplex” (ChronoRx, LLC, priority 1998, dated 2008).

Experiments:
[1] = test system: HSV-1; details: in vitro cell culture
[2] = test system: herpes simplex virus
[3] = test system: HSV; details: topical application, guinea pigs
[4] = test system: herpes simplex virus infections
[5] = rabbits and rats
[6] = test system: HSV-1; details: in vitro, supplementation with exogenous GSH

SMILES: O=c1c(O)c(-c2ccc(O)c(O)c2)oc2cc(O)cc(O)c12 [quercetin, 3,3′,4′,5,7-pentahydroxyflavone]
- intracellular viral replication [1]: reduced intracellular viral replication
- reduction of infectivity of viruses including HSV-1 [1]: concentration-dependent reduction of infectivity

SMILES: O=S(=O)([O-])[O-].[Zn+2] [Zinc sulfate]
- inactivation of free herpes simplex virus [2]: inactivates free herpes simplex virus

SMILES: Cl.NCCCC[C@H](N)C(=O)O [L-lysine, L-lysine monohydrochloride]
- protection of skin from HSV inoculation [3]: protected the skin from HSV inoculation
- effect on rate of healing or appearance of lesions ([4]; at least one study): no effect on the rate of healing or the appearance of lesions
- reduction of occurrence, severity and healing time ([4]; oral, study involving 52 subjects): effective agent for the reduction of occurrence, severity and healing time
- herpes simplex patients with subjective improvement ([4]; patients using L-lysine, one study): 88%

SMILES: O=c1[nH]c(=O)n([C@H]2C[C@H](O)[C@@H](CO)O2)cc1I [idoxuridine, 2′-Deoxy-5-idouridine]
- fetal malformations [5]: implicated in fetal malformations in rabbits and rats

SMILES: N[C@@H](CCC(=O)N[C@@H](CS)C(=O)NCC(=O)O)C(=O)O [GSH, Glutathione]
- inhibition of the replication of HSV-1 [6]: over 99%
